Experiments:
Cercospora beticola = experiment: Fungicidal control of leaf spot on beets (Cercospora beticola), protective spray on sugar beet seedlings; assay type: in vivo; settings: sugar beet seedlings ACH-31, sprayed before inoculation, untreated plants infected to 90%
Description: The active compounds, separately or together, were formulated as a 10% emulsion in a mixture of 70% by weight of cyclohexanone, 20% by weight of Nekanil® LN (Lutensol® AP6, wetting agent having emulsifying and dispersant action based on ethoxylated alkylphenols) and 10% by weight of Wettol® EM (nonionic emulsifier based on ethoxylated castor oil) and diluted with water to the desired concentration. Young sugar beet seedlings of the cultivar “ACH-31” were grown in pots to the 2 to 4 leaf stage. These plants were sprayed to runoff with an aqueous suspension, containing the concentration of active ingredient mentioned in the table below, prepared from a stock solution containing 5% of the active ingredient, 94% cyclohexanone and 1% emulsifier (Tween 20). After the plants had dried (3–5 h), they were inoculated with a spore suspension of Cercospora beticola in an aqueous solution of 0.5% gelatine. Then the trial plants were immediately transferred to a humid chamber with 18–23° C. and a relative humidity close to 100% and kept there for 5 days. For a period of further 10–14 days a cultivation in a greenhouse followed at 21–23° C. and a relative humidity about 95%. Then the extent of fungal attack on the leaves was visually assessed as % diseased leaf area.

[1] = system: cucumber mildew (Sphaerotheca fuliginea); experiment: Protective action on cucumber mildew, cucumber seedlings; assay type: in vivo; settings: 250 ppm, inoculated 20 hours after spraying, assessed after 7 days, untreated plants infected to 90%
Excerpt: The active compounds, separately or together, were formulated as a 10% emulsion in a mixture of 70% by weight of cyclohexanone, 20% by weight of Nekanil® LN (Lutensol® AP6, wetting agent having emulsifying and dispersant action based on ethoxylated alkylphenols) and 10% by weight of Wettol® EM (nonionic emulsifier based on ethoxylated castor oil) and diluted with water to the desired concentration.
Leaves of pot grown cucumber seedlings of the “Chinesische Schlange” variety were sprayed to runoff with aqueous liquors made from a stock solution consisting of 10% of active ingredient, 85% of cyclohexanone, and 5% of emulsifier. 20 hours after the sprays-on layer had dried, the plants were inoculated with a aqueous spore suspension of cucumber mildew (Sphaerotheca fuliginea). The plants were then placed for 7 days in the greenhouse at 20 to 24° C. and a relative humidity of 60 to 80%. The extent of fungus spread was assessed as %-attack of the whole leaf surface.

Row | SMILES | infection (% diseased leaf area) (Cercospora beticola; 50 ppm) | infection (% diseased leaf area) (Cercospora beticola; 200 ppm) | infection (%-attack of the whole leaf surface) [1]
1 | COc1cc(F)cc(F)c1-c1c(Cl)nc2ncnn2c1NC(C)C(F)(F)F (stereo not drawn) [I-38, 5-chloro-6-(4,6-difluoro-2-methoxyphenyl)-7-(1,1,1-trifluoroprop-2-yl)amino-[1,2,4]-triazolo[1,5-α]pyrimidine] | not more than 7% | not more than 7% | 
2 | COc1cc(F)cc(F)c1-c1c(Cl)nc2ncnn2c1NC(C)C(F)(F)F (stereo not drawn) [I-38B, 5-chloro-6-(4,6-difluoro-2-methoxyphenyl)-7-(1,1,1-trifluoroprop-2-yl)amino-[1,2,4]-triazolo[1,5-α]pyrimidine] |  |  | no infection
